Test results as given in US20210038503A1, “COMPOSITIONS AND METHODS FOR TOPICAL TREATMENT OF DERMAL AND OCULAR CONDITIONS” (GABADERM, INC., priority 2018, published 2021).
“Also recorded” adds a separate entry of the source. Like-named read-outs stand apart in the source and are kept apart here.

Tests used:
[1] = in vivo; cited from earlier work
psoriatic lesions = settings: for Number of psoriatic lesions: 2% propofol solution twice daily
Description: Areas of the lesion are roughly outlined.
The plaque psoriatic lesion was raised and more lightly colored than the unaffected skin.

oxalobenzone treated ear = assay: Oxalobenzone induced mouse ear inflammatory model (ear thickness); format: in vivo; settings: for Inflammation (ear thickness): 100 μl at 1 hour and 6 hours post challenge, 24 hours and 48 hours
Procedure: Animals were sensitized to oxalbenzone on the abdomen on day 2 with 150 μl 3% oxalbenzone. Animals were challenged on day 5 with 1% oxalobenzone to both sides of one ear. This served as an in vivo pharmacological disease models for psoriasis and atopic dermatitis.
Ear thickness was measured with calipers at 24 hours and 48 hours and compared to contralateral non-challenged ear. Ear thickness served as an indication of swelling due to inflammation. The greater the ear thickness, the greater the inflammation.

[2] = estimated 250 times lower than rat plasma levels
[3] = in vivo; cited from earlier work; remark: listed apart in the source
[4] = remark: listed apart in the source
Procedure: Stability was determined visually by separation of the emulsion and also analytically by changes in measured concentration of the cream and/or the formation of degradation products. […] Heavier oils include petrolatum or mineral oil.

[5] = 20% propofol-propylene glycol plus 30% w/w surfactant penetration enhancer
[6] = 20% w/w propofol in propylene glycol
[7] = local administration of propofol

## CC(C)c1cccc(C(C)C)c1O [propofol]
[5]
  Increase of plasma concentration: 3 to 5 fold
  Plasma concentration: approximately 350 ng/ml
[6]
  Increase of plasma concentration: 2-3 fold
  Plasma concentration: 175 to 200 ng/mL
rats, 500 mg of 100% propofol on skin, ~[…] body surface area
  Plasma concentration: 400 ng/mL
rats, 20% w/w propofol in petrolatum (100 mg total dose), ~[…] body surface area
  Plasma levels: 50 to 100 ng/mL
[1]
  Plasma levels at which wakening from propofol anesthesia occurs: less than 500 μg/ml
  Plasma steady state levels used to maintain anesthetized state: 1,000-2,000 ng/ml
Psoriatic lesions; after a week
  Number of psoriatic lesions: further reduced
Psoriatic lesions; after three days
  Number of psoriatic lesions: reduced
Psoriatic lesions; 10% propofol in cream twice daily, over the course of treatment
  Plaque psoriatic lesion height and area, left forearm: diminished in height and area
Psoriatic lesions; [7]
  Local anti-inflammatory effect: anti-inflammatory effects locally
  Sustained anti-nociceptive effect: reduced sensation of itch and burning
Psoriatic lesions; propofol in a cream based formulation
  Psoriatic lesions (FIG. 7 legend): reduced
Psoriatic lesions; repeated application of propofol
  Neurogenic inflammation: less neurogenic inflammation
Psoriatic lesions; topical application of propofol, summary
  Gutate and plaque psoriatic lesions: resolution of gutate and plaque psoriatic lesions
Oxalobenzone treated ear; 10% w/w propofol in DMSO
  Inflammation (ear thickness): significantly reduces inflammation
Oxalobenzone treated ear; 20% w/w propofol in DMSO
  Inflammation (ear thickness): significantly reduces inflammation
Oxalobenzone treated ear; topical propofol, formulation not specified at the place
  Skin inflammation / ear swelling: reduces skin inflammation; also recorded: reduces ear swelling and inflammation
skin; 10% propofol in DMSO
  Acute skin reaction (redness with wheal-flare effect): significant burning and inflammation
  Time to onset of burning and inflammation after treatment: 10 to 15 min
  Time until acute effect resolved: about 90 minutes
  Treatment effect despite initial inflammatory response: significant treatment effect
skin; 10% propofol in mineral oil containing cream
  Acute skin reaction (redness with wheal-flare effect): did not result in this effect
[2]
  Human equivalent plasma concentration: 0.4 to 2 ng/mL
[3]
  Oral bioavailability: < 10%
[4]; oil-in-water or water-in-oil formulations with a heavier oil or longer chain oil (petrolatum or mineral oil)
  Stability: stable
[4]; penetration enhancer limited to less than 10% w/w, particularly propofol greater than 2%
  Stability: stable
[4]; propofol >10% w/w in HRT™ (gel or cream)
  Stability: not stable
[4]; propofol >10% w/w in Lipoderm®
  Stability: not stable
[4]; propofol >10% w/w in Medihol™ gel base
  Stability: not stable
[4]; propofol >10% w/w in Vanish-Pen™ Cream base
  Stability: not stable
[4]; propofol >10% w/w in VersaPro™ (lotion or cream)
  Stability: not stable
[4]; propofol at 10% w/w in Lipoderm® (mineral oil-free)
  Stability: not stable
